{
  "source": "patent US11452731B2",
  "about": "“Method of treating and preventing loss of cognition” (ENDORECHERCHE, INC., priority 2009, dated 2022)",
  "test": "Clinical trial ERC-205: DHEA 50 mg daily versus placebo on hot flushes in postmenopausal women (Example 10)",
  "assay_type": "in vivo",
  "details": "50 mg, strata 50 to 70 hot flushes per week at screening",
  "experimental": "Postmenopausal women experiencing moderate or severe hot flushes per week (as determined by a two week diary) were randomized to receive a daily dose of either placebo or 50 mg DHEA. Fifty evaluable participants (25 patients per arm) were treated for four months with a daily assessment of hot flushes recorded in a diary completed by each participant.\nPostmenopausal women aged 40 to 70 years with moderate or severe hot flushes per week, as confirmed by a two-week screening hot flush diary were enrolled after signing informed consent. The protocol was approved by the Institutional Review Board (IRB) of Le Centre Hospitalier de l'Université Laval and by Health Canada.\nThe primary endpoint was the change from Baseline in the weekly frequency of moderate to severe hot flushes at Week 16, after four months of treatment. The objectives also included the change from Baseline in the weekly frequency of all hot flushes and the change from Baseline in the weekly weighted severity score.\nThe response endpoint is the patient's paper diary which was filled in daily to specify the number and type of hot flushes as follows:\nThe hot flush diary began as a Screening diary for two weeks prior to randomization whereby patients had to complete the diary daily, recording the number and severity of hot flushes. The patients had to record an average of 50 or more moderate or severe hot flushes per week over the two-week period to be eligible (i.e., at least 100 hot flushes documented on the two week Screening diary).\nOnce randomized, the patient completed eight, two-week hot flush diaries upon beginning study medication. The diaries had to be filled out on a daily basis. The first diary was completed over the first two weeks and be returned on the two week visit. The second two-week diary was completed over the next two weeks of the first four week treatment period and was returned at the four week visit. At 4, 8, 12 and 16 week visits, two two-week diaries for hot flushes were collected.",
  "key": {"[1]": {"details": "Screening (mean of 2 w), baseline"}},
  "data": [
    {"smiles": "C[C@]12CC[C@H](O)CC1=CC[C@@H]1[C@@H]2CC[C@]2(C)C(=O)CC[C@@H]12", "note": "[DHEA, dehydroepiandrosterone]", "values": [
      {"measurement": "NUMBER OF ALL HOT FLUSHES PER WEEK (MEAN)", "setting": "[1]", "result": 63.7},
      {"measurement": "NUMBER OF MODERATE TO SEVERE HOT FLUSHES PER WEEK (MEAN)", "setting": "[1]", "result": 56.7},
      {"measurement": "WEIGHTED SEVERITY SCORE OF HOT FLUSHES PER WEEK (MEAN)", "setting": "[1]", "result": 144.3},
      {"measurement": "NUMBER OF ALL HOT FLUSHES PER WEEK (MEAN)", "setting": "Week 1", "result": 60.8},
      {"measurement": "NUMBER OF MODERATE TO SEVERE HOT FLUSHES PER WEEK (MEAN)", "setting": "Week 1", "result": 54.2},
      {"measurement": "WEIGHTED SEVERITY SCORE OF HOT FLUSHES PER WEEK (MEAN)", "setting": "Week 1", "result": 141.0},
      {"measurement": "NUMBER OF ALL HOT FLUSHES PER WEEK (MEAN)", "setting": "Week 2", "result": 55.3},
      {"measurement": "NUMBER OF MODERATE TO SEVERE HOT FLUSHES PER WEEK (MEAN)", "setting": "Week 2", "result": 49.0},
      {"measurement": "WEIGHTED SEVERITY SCORE OF HOT FLUSHES PER WEEK (MEAN)", "setting": "Week 2", "result": 127.1},
      {"measurement": "NUMBER OF ALL HOT FLUSHES PER WEEK (MEAN)", "setting": "Week 3", "result": 52.3},
      {"measurement": "NUMBER OF MODERATE TO SEVERE HOT FLUSHES PER WEEK (MEAN)", "setting": "Week 3", "result": 46.5},
      {"measurement": "WEIGHTED SEVERITY SCORE OF HOT FLUSHES PER WEEK (MEAN)", "setting": "Week 3", "result": 118.9},
      {"measurement": "NUMBER OF ALL HOT FLUSHES PER WEEK (MEAN)", "setting": "Week 4", "result": 49.4},
      {"measurement": "NUMBER OF MODERATE TO SEVERE HOT FLUSHES PER WEEK (MEAN)", "setting": "Week 4", "result": 44.0},
      {"measurement": "WEIGHTED SEVERITY SCORE OF HOT FLUSHES PER WEEK (MEAN)", "setting": "Week 4", "result": 111.6},
      {"measurement": "NUMBER OF ALL HOT FLUSHES PER WEEK (MEAN)", "setting": "Week 5", "result": 42.7},
      {"measurement": "NUMBER OF MODERATE TO SEVERE HOT FLUSHES PER WEEK (MEAN)", "setting": "Week 5", "result": 38.3},
      {"measurement": "WEIGHTED SEVERITY SCORE OF HOT FLUSHES PER WEEK (MEAN)", "setting": "Week 5", "result": 97.8},
      {"measurement": "NUMBER OF ALL HOT FLUSHES PER WEEK (MEAN)", "setting": "Week 6", "result": 43.7},
      {"measurement": "NUMBER OF MODERATE TO SEVERE HOT FLUSHES PER WEEK (MEAN)", "setting": "Week 6", "result": 39.8},
      {"measurement": "WEIGHTED SEVERITY SCORE OF HOT FLUSHES PER WEEK (MEAN)", "setting": "Week 6", "result": 99.0},
      {"measurement": "NUMBER OF ALL HOT FLUSHES PER WEEK (MEAN)", "setting": "Week 7", "result": 39.2},
      {"measurement": "NUMBER OF MODERATE TO SEVERE HOT FLUSHES PER WEEK (MEAN)", "setting": "Week 7", "result": 34.7},
      {"measurement": "WEIGHTED SEVERITY SCORE OF HOT FLUSHES PER WEEK (MEAN)", "setting": "Week 7", "result": 88.3},
      {"measurement": "NUMBER OF ALL HOT FLUSHES PER WEEK (MEAN)", "setting": "Week 8", "result": 41.8},
      {"measurement": "NUMBER OF MODERATE TO SEVERE HOT FLUSHES PER WEEK (MEAN)", "setting": "Week 8", "result": 38.1},
      {"measurement": "WEIGHTED SEVERITY SCORE OF HOT FLUSHES PER WEEK (MEAN)", "setting": "Week 8", "result": 95.8},
      {"measurement": "NUMBER OF ALL HOT FLUSHES PER WEEK (MEAN)", "setting": "Week 9", "result": 42.4},
      {"measurement": "NUMBER OF MODERATE TO SEVERE HOT FLUSHES PER WEEK (MEAN)", "setting": "Week 9", "result": 38.5},
      {"measurement": "WEIGHTED SEVERITY SCORE OF HOT FLUSHES PER WEEK (MEAN)", "setting": "Week 9", "result": 96.0},
      {"measurement": "NUMBER OF ALL HOT FLUSHES PER WEEK (MEAN)", "setting": "Week 10", "result": 40.5},
      {"measurement": "NUMBER OF MODERATE TO SEVERE HOT FLUSHES PER WEEK (MEAN)", "setting": "Week 10", "result": 36.6},
      {"measurement": "WEIGHTED SEVERITY SCORE OF HOT FLUSHES PER WEEK (MEAN)", "setting": "Week 10", "result": 92.7},
      {"measurement": "NUMBER OF ALL HOT FLUSHES PER WEEK (MEAN)", "setting": "Week 11", "result": 39.5},
      {"measurement": "NUMBER OF MODERATE TO SEVERE HOT FLUSHES PER WEEK (MEAN)", "setting": "Week 11", "result": 35.6},
      {"measurement": "WEIGHTED SEVERITY SCORE OF HOT FLUSHES PER WEEK (MEAN)", "setting": "Week 11", "result": 89.8},
      {"measurement": "NUMBER OF ALL HOT FLUSHES PER WEEK (MEAN)", "setting": "Week 12", "result": 39.7},
      {"measurement": "NUMBER OF MODERATE TO SEVERE HOT FLUSHES PER WEEK (MEAN)", "setting": "Week 12", "result": 35.8},
      {"measurement": "WEIGHTED SEVERITY SCORE OF HOT FLUSHES PER WEEK (MEAN)", "setting": "Week 12", "result": 88.5},
      {"measurement": "NUMBER OF ALL HOT FLUSHES PER WEEK (MEAN)", "setting": "Week 13", "result": 36.2},
      {"measurement": "NUMBER OF MODERATE TO SEVERE HOT FLUSHES PER WEEK (MEAN)", "setting": "Week 13", "result": 32.8},
      {"measurement": "WEIGHTED SEVERITY SCORE OF HOT FLUSHES PER WEEK (MEAN)", "setting": "Week 13", "result": 81.4},
      {"measurement": "NUMBER OF ALL HOT FLUSHES PER WEEK (MEAN)", "setting": "Week 14", "result": 37.8},
      {"measurement": "NUMBER OF MODERATE TO SEVERE HOT FLUSHES PER WEEK (MEAN)", "setting": "Week 14", "result": 34.2},
      {"measurement": "WEIGHTED SEVERITY SCORE OF HOT FLUSHES PER WEEK (MEAN)", "setting": "Week 14", "result": 87.0},
      {"measurement": "NUMBER OF ALL HOT FLUSHES PER WEEK (MEAN)", "setting": "Week 15", "result": 36.5},
      {"measurement": "NUMBER OF MODERATE TO SEVERE HOT FLUSHES PER WEEK (MEAN)", "setting": "Week 15", "result": 33.7}
    ]}
  ]
}
